Assay results from US5756491A, “Antiviral cobalt-organic compounds” (priority 1991, dated 1998).

Key:
HSV-1 McKrae Strain = experiment: Direct virucidal efficacy against HSV-1 on HFF monolayers; type: cell-based; conditions: for effective virucidal concentration IC50 / effective virucidal concentration IC90: HSV-1
Protocol: HSV-1 McKrae Strain was diluted to a final concentration of 10^5 PFU/ml in minimal essential medium (MEM). Hereinafter, this dilution is referred to as the HSV-1 Suspension for convenience.
(§1) With sufficient stirring, all the compounds completely dissolved.
Each of the drug solutions were mixed with the HSV-1 Suspension in a 1:1 ratio. The drug and HSV-1 Suspension mixture was incubated at 37° C. for thirty minutes with agitation every ten minutes. After the incubation, fifty microliter aliquots were overlaid onto triplicate confluent human foreskin fibroblast (HFF) cell monolayers. The inoculum was absorbed for thirty minutes and then a medium containing the appropriate drug concentration in MEM was added to the monolayers to a final volume of 0.5 milliliters per culture-well. The monolayers were incubated at 37° C. The developing HSV-1 Cytopathology was monitored daily for two days by inverted light microscopy. Titers were calculated by multiple regression analysis. All data is presented as the average PFU/ml reduction at 24 and/or 48 hours after inoculation (PI).
1. HSV-1 inoculated, non-compound treated HFF monolayers were included as "positive controls"; and […]

[1] = system: human foreskin fibroblast (HFF) cell monolayers; experiment: Toxicity effects controls: sham-inoculated compound-treated HFF monolayers; type: cell-based; for Toxicity effects: key: +: toxic; -: no toxicity; ±: mild toxicity; T: toxicity effects interfered with CPE rating
Excerpt: as §1
In the tables, the symbols have the meaning indicated: […]

RE strain HSV-1 = experiment: HSV-1 recovery from tear film, cornea and trigeminal ganglia of treated rabbits; type: in vivo, NZW rabbit; conditions: Example 4
Excerpt: The specified number of NZW rabbits (1.5-2.0 kg) were used. Animals were received at least two days prior to inoculation to allow them to accommodate to the conditions in the vivarium facility. This conditioning of the animals prior to inoculation minimizes animal variability. After the accommodation, the animals received a slit-lamp examination to exclude any animals with pre-existing anterior segment ocular defects. Animals were bi-laterally inoculated by intrastromal injection of 10^5 PFU RE strain HSV-1. The animals were then replaced individually into cages.
[…] This was carried out by obtaining tear film by swabbing the lower and upper conjunctival sacs and retaining the swab in the nasal fornix for 10 seconds. The swabs were eluted individually in HBSS. 50 μl aliquots of the virus-HBSS eluate were absorbed under confluent HFF cell monolayers for 5 minutes. The monolayers were hydrated with MEM, incubated at 37° C. and observed daily for 1 to 2 weeks to detect developing cytopathology consistent with HSV infection (HSV CPE).
(§2) On day 10 PI, the animals were sacrificed, the corneal epithelium was scraped from the eyes and epithelial and corneal stromal cultures were preformed on HFF cell monolayers. The separation of epithelial virus from deeper stromal virus infection allows for analysis of HSV in these distinct corneal layers. Corneal epithelial and stromal co-cultures were evaluated daily by inverted light microscopy.
At sacrifice, trigeminal ganglia were removed, washed in HBSS, minced and floated over duplicate HFF cell monolayers. The cell co-cultures were monitored by inverted light microscopy for 2 weeks. Negative cultures were blind passaged twice at 7 day intervals. Detection of HSV CPE in the whole-cell co-cultures was scored either positive or negative. HSV recovery from inventive compound-treated, TFT-treated and placebo-treated trigeminal ganglia was compared and differences in recovery rates analyzed.
as §2, with “7” for “10”, “performed” for “preformed”

HFF cells = experiment: Cell proliferation assay; type: cell-based, human; conditions: rapidly growing cells
Protocol: Twenty-four hours prior to assay, HFF cells are seeded in 6-well plates at a concentration of 2.5×10^4 cells per well in MEM containing 10% FBS. On the day of the assay, drugs are diluted serially in MEM containing 10% FBS at increments of 1:5 covering a range from 100 μg/ml to 0.03 μg/ml. […] The media from the wells is then aspirated and 2 ml of each drug concentration is then added to each well. The cells are then incubated in a Co2 incubator at 37° C. for 72 h. At the end of this time, the media-drug solution is removed and the cells washed. […] The cell-media mixture is then pipetted up and down vigorously to break up the cell suspension and 0.2 ml of the mixture is added to 9.8 ml of Isoton III and counted using a Coulter Counter. Each sample is counted three times with three replicate wells per sample.

CC([O-])=CC(C)=NCCN=C(C)C=C(C)[O-].[Cl-].[Co+3].c1c[nH]cn1.c1c[nH]cn1 [Compound 82]
virucidal efficacy (HSV-1 titer) (HSV-1 McKrae Strain; Experiment 1 (Table 2), 24 h PI, 0.001 mg/ml): 10^5 PFU/ml
virucidal efficacy (HSV-1 titer) (HSV-1 McKrae Strain; Experiment 1 (Table 2), 24 h PI, 0.1 mg/ml): 10^2 PFU/ml
virucidal efficacy (HSV-1 titer) (HSV-1 McKrae Strain; Experiment 1 (Table 2), 24 h PI, 10 mg/ml): 0 PFU/ml
virucidal efficacy (HSV-1 titer) (HSV-1 McKrae Strain; Experiment 1 (Table 2), 24 h PI, .01 mg/ml): 10^4 PFU/ml
virucidal efficacy (HSV-1 titer) (HSV-1 McKrae Strain; Experiment 1 (Table 2), 48 h PI, 1 mg/ml): 10^5 PFU/ml
virucidal efficacy (HSV-1 titer) (HSV-1 McKrae Strain; Experiment 1 (Table 2), 48 h PI, 10 mg/ml): O/T
effective virucidal concentration IC50 (HSV-1 McKrae Strain; Experiment 1 (Table 3)): 100 µg/mL
effective virucidal concentration IC90 (HSV-1 McKrae Strain; Experiment 1 (Table 3)): 1000 µg/mL
virucidal efficacy (IC50) compared with 23 and 76 (HSV-1 McKrae Strain; Experiment 1 comment, less than that observed for 23 and 76): one order of magnitude less
virucidal efficacy (HSV-1 titer) (HSV-1 McKrae Strain; Experiment 2 (Table 5), 24 h PI, 0.001 mg/ml): 10^4 PFU/ml
virucidal efficacy (HSV-1 titer) (HSV-1 McKrae Strain; Experiment 2 (Table 5), 24 h PI, 0.1 mg/ml): 10^2 PFU/ml
virucidal efficacy (HSV-1 titer) (HSV-1 McKrae Strain; Experiment 2 (Table 5), 24 h PI, 10 mg/ml): 0 PFU/ml
virucidal efficacy (HSV-1 titer) (HSV-1 McKrae Strain; Experiment 2 (Table 5), 48 h PI, 1 mg/ml): 10^5 PFU/ml
effective virucidal concentration IC50 (HSV-1 McKrae Strain; Experiment 2 (Table 6)): 100 µg/mL
effective virucidal concentration IC90 (HSV-1 McKrae Strain; Experiment 2 (Table 6)): 1000 µg/mL
toxicity effects ([1]; Experiment 1 (Table 1), 24 h PI, 0.001 mg/ml): -
toxicity effects ([1]; Experiment 1 (Table 1), 24 h PI, 0.01 mg/ml): -
toxicity effects ([1]; Experiment 1 (Table 1), 24 h PI, 0.1 mg/ml): -
toxicity effects ([1]; Experiment 1 (Table 1), 24 h PI, 1 mg/ml): -
toxicity effects ([1]; Experiment 1 (Table 1), 24 h PI, 10 mg/ml): -
toxicity effects ([1]; Experiment 1 (Table 1), 48 h PI, 0.001 mg/ml): -
toxicity effects ([1]; Experiment 1 (Table 1), 48 h PI, 0.01 mg/ml): -
toxicity effects ([1]; Experiment 1 (Table 1), 48 h PI, 0.1 mg/ml): -
toxicity effects ([1]; Experiment 1 (Table 1), 48 h PI, 1 mg/ml): -
toxicity compared with 23 and 76 ([1]; Experiment 1 comment, less than the observed toxicity of 23 and 76): one order of magnitud
recovery of HSV-1 in tear film (RE strain HSV-1): reduced the recovery of HSV-1 in tear film

CC(=NCCN=C(C)C(Cl)=C(C)[O-])C(Cl)=C(C)[O-].[Br-].[Co+3].c1c[nH]cn1.c1c[nH]cn1 [Compound 93]
virucidal efficacy (HSV-1 titer) (HSV-1 McKrae Strain; Experiment 4 (Table 9), 24 h PI, Run 1, 0.001 mg/ml): 10^5 PFU/ml
virucidal efficacy (HSV-1 titer) (HSV-1 McKrae Strain; Experiment 4 (Table 9), 24 h PI, Run 1, 0.5 mg/ml): 10^2 PFU/ml
virucidal efficacy (HSV-1 titer) (HSV-1 McKrae Strain; Experiment 4 (Table 9), 24 h PI, Run 1, 1 mg/ml): 0 PFU/ml
virucidal efficacy (HSV-1 titer) (HSV-1 McKrae Strain; Experiment 4 (Table 9), 24 h PI, Run 1, 5 mg/ml): 0 PFU/ml
virucidal efficacy (HSV-1 titer) (HSV-1 McKrae Strain; Experiment 4 (Table 9), 24 h PI, Run 2, 0.01 mg/ml): 10^2 PFU/ml
virucidal efficacy (HSV-1 titer) (HSV-1 McKrae Strain; Experiment 4 (Table 9), 24 h PI, Run 2, 0.1 mg/ml): 0 PFU/ml
virucidal efficacy (HSV-1 titer) (HSV-1 McKrae Strain; Experiment 4 (Table 9), 24 h PI, Run 2, 0.5 mg/ml): 0 PFU/ml
virucidal efficacy (HSV-1 titer) (HSV-1 McKrae Strain; Experiment 4 (Table 9), 24 h PI, Run 2, 1 mg/ml): 0 PFU/ml
virucidal efficacy (HSV-1 titer) (HSV-1 McKrae Strain; Experiment 4 (Table 9), 24 h PI, Run 2, 5 mg/ml): 0 PFU/ml
effective virucidal concentration IC50 (HSV-1 McKrae Strain; Experiment 4 (Table 11)): 500 µg/mL
effective virucidal concentration IC90 (HSV-1 McKrae Strain; Experiment 4 (Table 11)): > 1000 µg/mL
virucidal efficacy (HSV-1 titer) (HSV-1 McKrae Strain; Experiment 6 (Table 16), 24 h PI, 0.1 mg/ml): 10^2 PFU/ml
virucidal efficacy (HSV-1 titer) (HSV-1 McKrae Strain; Experiment 6 (Table 16), 24 h PI, 0.5 mg/ml): 0 PFU/ml
virucidal efficacy (HSV-1 titer) (HSV-1 McKrae Strain; Experiment 6 (Table 16), 24 h PI, 1 mg/ml): 0 PFU/ml
effective virucidal concentration IC50 (HSV-1 McKrae Strain; Experiment 6 (Table 17)): 100 µg/mL
efficacy in virucidal assay (comment) (HSV-1 McKrae Strain; Experiment 6 comment, reduction in toxicity resulted in it): reduction in efficacy
toxicity IC50, cell proliferation (HFF cells): 25.0 MCG/ML
toxicity effects ([1]; Experiment 4 (Table 10), 24 h, 0.001 mg/ml): -
toxicity effects ([1]; Experiment 4 (Table 10), 24 h, 0.01 mg/ml): -
toxicity effects ([1]; Experiment 4 (Table 10), 24 h, 0.1 mg/ml): -
toxicity effects ([1]; Experiment 4 (Table 10), 24 h, 0.5 mg/ml): -
toxicity effects ([1]; Experiment 4 (Table 10), 24 h, 1 mg/ml): -
toxicity effects ([1]; Experiment 4 (Table 10), 48 h, 0.001 mg/ml): -
toxicity effects ([1]; Experiment 4 (Table 10), 48 h, 0.01 mg/ml): -
toxicity effects ([1]; Experiment 4 (Table 10), 48 h, 0.5 mg/ml): -
toxicity effects ([1]; Experiment 4 (Table 10), 48 h, 1 mg/ml): -
toxicity effects ([1]; Experiment 6 (Table 15), 48 h, 0.001 mg/ml): -
toxicity effects ([1]; Experiment 6 (Table 15), 48 h, 0.01 mg/ml): -
toxicity to HFF monolayers (comment) ([1]; Experiment 6 comment, more pronounced at 0.5 and 0.1 mg/ml, cell rounding, detaching, granularity): toxicity observed
